Patent US11285136B2, “Nanoparticles for controlled release of Sorafenib and Sorafenib derivatives” (DISTRETTO TECNOLOGICO SICILIA MICRO NANO SISTEMI S.C.A.R.L., priority 2017, dated 2022)
Entries after “also recorded” stand apart in the source; their conditions may differ.

Legend:
[1] = In vitro release of Sorafenib, dialysis tube method; assay type: physicochemical; settings: SGF, SIF and PBS, 37° C.
Procedure: During the experiment, the temperature was maintained at 37° C. in a thermostatic stirrer and with stirring of 100 rpm. At scheduled time intervals, 1 ml aliquots were taken from the external medium and replaced with an equal volume of fresh receiving medium. The released Sorafenib was quantified by HPLC analysis. Each in vitro release experiment was repeated in triplicate.
A control experiment was also carried out to determine the dissolution of the free drug: an appropriate amount of Sorafenib was dispersed in the receiving medium, in order to have a final concentration of Sorafenib equal to that present in the nanoparticles, the dispersion was then introduced into a dialysis tube (cut-off 12000-14000 Da) which was immersed in a container containing the receiving medium. The amount of Sorafenib in the receiving medium was detected by HPLC analysis.
The amount of released Sorafenib was expressed as a percentage ratio between the released drug weight and the total amount of Sorafenib loaded into the nanoparticles. […] The cumulative release of Sorafenib in 24 hours was about 63% in SIF (panel B) and about 55% in PBS (panel C).

[2] = Body weight and mobility of treated xenograft mice; assay type: in vivo, nude mice; settings: 10 mg/kg daily (6 days/week), 17 days, FIG. 5B
Procedure: (§1) Male nude mice (fox1 nu/nu) of 4 weeks of life were purchased at Envigo (Udine, Italy) and left to acclimatize for 1 week. Hep3B cells (10×10^6 in 0.2 ml PBS), undergoing logarithmic growth, were inoculated in the right flank of the animals. When the tumors were palpable (about 300 mm^3), the mice were randomly divided into four groups of five animals each, with the various tumor volumes equally distributed between the four groups. Each group was treated for 17 days as indicated below.

[3] = system: Hep3B hepatocellular carcinoma; assay: Hep3B xenograft in nude mice, therapeutic efficacy; assay type: in vivo; settings: 10 mg/kg daily (6 days/week), 17 days, FIG. 5A
Procedure: as §1
Group 1: daily treatment (6 days/week) by intraperitoneal (IP) injection with 10 mg/kg of Sorafenib tosylate resuspended in DMSO and further diluted in a 25% solution of ethanol (DMSO-EtOH).
Group 2: carrier only (DMSO-EtOH).
Group 4: daily treatment (6 days/week) with 10 mg/kg of empty PBB nanoparticles resuspended in RPMI.
To quantify the Ki-67 cell proliferation marker expression, the ImmunoRatio® software (http://jvsmicroscope.uta.fi/immunoratio/) was used which, using a color deconvolution algorithm, calculates the percentage of positively marked area (area stained with diaminobenzidine) towards the total nuclear area. The hematoxylin stains were also acquired to analyze the neo-vascularization of the tumor, using the Leica DMR microscope equipped with a Leica DFC 320 digital camera.

[4] = cited from earlier work
Hep3B = assay: Cell viability assay (CellTiter) on Hep3B cells; assay type: cell-based, human; settings: 72 hours
Procedure: (§2) The human hepatocellular carcinoma cell lines, HepG2 and Hep3B, were obtained from the American Type Culture Collection (ATCC). Cells were kept in 5% CO2 and grown in Roswell Park Memorial Institute (RPMI) medium (SIGMA, Milan, Italy), supplemented with 10% (v/v) fetal bovine serum (FBS) (Gibco, Life Technologies, Monza MB, Italy), 2 mM L-glutamine, 100 U/ml of penicillin-streptomycin and 1 mM of sodium pyruvate (SIGMA, Milan, Italy). Cell lines were regularly checked for possible mycoplasma contamination.
(§3) The latter were resuspended in sterile conditions in sterile H2O, sonicated for 20 min in a water sonicator, and diluted with a complete RPMI volume (2×). At the end of the treatment, cell viability assays were performed using the OneSolution aqueous CellTiter kit (Promega Corporation, Madison, Wis., USA). The percentage of cell viability was calculated with reference to the absorbance measured in the control cells. The experiments were performed in triplicate and the values expressed as mean±SD of three independent experiments.

[5] = Biodistribution of Sorafenib in tissues of treated mice; settings: compared with Sorafenib PBB, p<0.01, FIG. 6
Procedure: The lyophilized nanoparticle samples were resuspended and sonicated as reported in cell viability assays. Tumor volumes and body weight were recorded twice a week as previously described (Cusimano et al., Cytotoxic activity of the novel small molecule AKT inhibitor SC66 in hepatocellular carcinoma cells. Oncotarget 2015, 6, 1707-1722). The mice were sacrificed by cervical dislocation when the tumor mass exceeded 10% of the body weight of the animals, or when the tumor mass appeared ulcerated or other morbid conditions were found, in accordance with the institutional guidelines and in accordance with the national law (Legislative Decree No. 26 4-3-2014) and international laws and policies (ECC Council Directive 86/609, OJ L358.1, Dec. 12, 1987). […] At the end of the trial, tumors, liver, kidneys, lungs and spleen were collected from each animal. Half of each tumor, or organ, was frozen in liquid nitrogen and stored at −80° C. for biodistribution analyzes, while the other half was fixated in formalin and used for immunohistochemistry analysis.
Sorafenib was extracted from the tissues of the treated animals following the procedure described in Craparo E F et al. Galactosylated polymeric carriers for liver targeting of Sorafenib. […]

HepG2 = assay: Cell viability assay (CellTiter) on HepG2 cells; assay type: cell-based, human
Procedure: as §2, §3

[6] = oral tablets, strong first-pass effect; cited from earlier work

- dissolution of free drug [1]: almost complete within two hours
- IC50 (Hep3B; Homo sapiens, mean ± DS): 3.5 ± 0.5 µM
- amount of Sorafenib detected in the lungs [5]: significantly higher
- IC50 (HepG2; Homo sapiens, HepG2, 72 hours, mean ± DS): 5.5 ± 1 µM
SMILES: CNC(=O)c1cc(Oc2ccc(NC(=O)Nc3ccc(Cl)c(C(F)(F)F)c3)cc2)ccn1 [Sorafenib, 4-[4-[[4-chloro-3-(trifluoromethyl)phenyl]carbamoylamino]phenoxy]-N-methyl-pyridine-2-carboxamide]
- body weight [2]: did not show a significant loss of body weight
- tumor growth [3]: reduced tumor growth compared to the carrier alone, although this difference was not significant
- solubility in water [4]: slightly soluble; also recorded: poorly soluble
- cell viability (Hep3B; 0.6-10 μM, FIG. 3): strongly decreased in a dose-dependent manner
- cell viability (HepG2; HepG2, 0.6-10 μM, 72 hours, FIG. 3): strongly decreased in a dose-dependent manner
- bioavailability [6]: low
